Measurements reported in patent US6727264B1 (Synaptic Pharmaceutical Corporation, priority 2001, dated 2004).

What follows are compounds tested against rat MCH-1 (Rattus norvegicus, UniProt P97639) (assay: Radioligand binding assay at cloned rat MCH1 receptor ([3H] Compound A)). Settings: cloned rat MCH1 receptor, membranes from Peakr293 cells, 0.08 nM [3H] Compound A; read-out: Ki (nM) rMCH1.
Chain of rat MCH-1 (P97639 whole entry): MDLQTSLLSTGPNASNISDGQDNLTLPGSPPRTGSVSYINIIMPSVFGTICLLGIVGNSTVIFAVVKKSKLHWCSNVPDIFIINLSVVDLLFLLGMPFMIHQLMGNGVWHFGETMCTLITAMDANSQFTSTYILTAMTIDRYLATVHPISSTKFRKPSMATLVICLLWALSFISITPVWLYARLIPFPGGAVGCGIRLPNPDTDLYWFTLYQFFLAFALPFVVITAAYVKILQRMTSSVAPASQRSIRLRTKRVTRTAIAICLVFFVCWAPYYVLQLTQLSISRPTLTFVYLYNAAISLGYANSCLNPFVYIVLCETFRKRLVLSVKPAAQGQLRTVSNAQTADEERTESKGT
Parameters: host or cells: Peak rapid 293 (Peakr293) cells, transient calcium phosphate transfection, membranes
For CC(C)C(=O)Nc1cccc(C2CCN(Cc3cn(-c4ccccc4C(F)(F)F)c4ccccc34)CC2)c1 [Example 448], the Ki was 61 nM. Compound COc1ccc2[nH]cc(CN3CCC(c4cccc(NC(=O)C(C)C)c4)CC3)c2c1 [Example 449] has a Ki of 623 nM.

Same assay, conditions: cloned rat MCH1 receptor; 0.08 nM [3H] Compound A; Peakr293 cell membranes; read-out: Ki (nM) rMCH1
For CC(C)C(=O)Nc1cccc(C2CCN(Cc3c(-c4ccccc4)n(-c4ccccc4)c4ccccc34)CC2)c1 [Example 433], the Ki was 30.4 nM. Compound CCn1c(-c2ccc(Cl)cc2)c(CN2CCC(c3cccc(NC(=O)C(C)C)c3)CC2)c2ccccc21 [Example 434] has a Ki of 214 nM. Cc1[nH]c2ccc(Cl)cc2c1CN1CCC(c2cccc(NC(=O)C(C)C)c2)CC1 [Example 435] gave a Ki of 215 nM. Compound CC(C)C(=O)Nc1cccc(C2CCN(Cc3c[nH]c4ccc(C#N)cc34)CC2)c1 [Example 436] has a Ki of 434 nM. In the case of Cc1ccc2[nH]c(-c3ccccc3)c(CN3CCC(c4cccc(NC(=O)C(C)C)c4)CC3)c2c1 [Example 437], the Ki is reported as 552 nM. CC(C)C(=O)Nc1cccc(C2CCN(Cc3cn(-c4ccc([N+](=O)[O-])cc4)c4ccccc34)CC2)c1 [Example 438] gave a Ki of 1.3 nM. Compound CC(C)C(=O)Nc1cccc(C2CCN(Cc3cn(-c4ccccc4F)c4ccccc34)CC2)c1 [Example 439] has a Ki of 8.5 nM. For COc1cc2[nH]cc(CN3CCC(c4cccc(NC(=O)C(C)C)c4)CC3)c2cc1OC [Example 440], the Ki was 107 nM. With Cc1cccc(-n2cc(CN3CCC(c4cccc(NC(=O)C(C)C)c4)CC3)c3ccccc32)c1 [Example 441] the Ki was 10.1 nM. Compound CC(C)C(=O)Nc1cccc(C2CCN(Cc3cn(-c4cccc(C(F)(F)F)c4)c4ccccc34)CC2)c1 [Example 442] has a Ki of 7.8 nM. Compound COc1ccc(-n2cc(CN3CCC(c4cccc(NC(=O)C(C)C)c4)CC3)c3ccccc32)cc1 [Example 443] has a Ki of 23.4 nM. Compound COc1ccc2[nH]c(-c3ccccc3)c(CN3CCC(c4cccc(NC(=O)C(C)C)c4)CC3)c2c1 [Example 444] has a Ki of 545 nM. For Cc1ccc2[nH]cc(CN3CCC(c4cccc(NC(=O)C(C)C)c4)CC3)c2c1 [Example 445], the Ki was 486 nM. CC(C)C(=O)Nc1cccc(C2CCN(Cc3cn(-c4ccccc4[N+](=O)[O-])c4ccccc34)CC2)c1 [Example 446] was tested, and the Ki was 17.9 nM. With COc1ccccc1-n1cc(CN2CCC(c3cccc(NC(=O)C(C)C)c3)CC2)c2ccccc21 [Example 447] the Ki was 9.8 nM. CC(C)C(=O)Nc1cccc(C2CCN(Cc3cn(-c4ccccc4C(F)(F)F)c4ccccc34)CC2)c1 [Example 448] showed a Ki of 61 nM. In the case of COc1ccc2[nH]cc(CN3CCC(c4cccc(NC(=O)C(C)C)c4)CC3)c2c1 [Example 449], the Ki is reported as 623 nM. CC(C)C(=O)Nc1cccc(C2CCN(Cc3cn(-c4ccc(F)cc4)c4ccccc34)CC2)c1 [Example 450] showed a Ki of 7.1 nM. COc1cccc(-n2cc(CN3CCC(c4cccc(NC(=O)C(C)C)c4)CC3)c3ccccc32)c1 [Example 451] showed a Ki of 18.7 nM. For Cc1ccccc1-n1cc(CN2CCC(c3cccc(NC(=O)C(C)C)c3)CC2)c2ccccc21 [Example 452], the Ki was 12.7 nM. CCOC(=O)c1[nH]c2ccc(OC)cc2c1CN1CCC(c2cccc(NC(=O)C(C)C)c2)CC1 [Example 453, ETHYL 3-({4-[3-(ISOBUTYRYLAMINO)PHENYL]-1-PIPERIDINYL}METHYL)-5-METHOXY-1H-INDOLE-2-CARBOXYLATE] showed a Ki of 195 nM. In the case of CC(C)C(=O)Nc1cccc(C2CCN(Cc3c[nH]c4ccc(F)cc34)CC2)c1 [Example 454], the Ki is reported as 772 nM. Compound CCC(=O)Nc1cccc(C2CCN(Cc3cn(-c4ccc(Cl)cc4)c4ccccc34)CC2)c1 [Example 455] has a Ki of 10.6 nM. In the case of CCC(=O)Nc1cccc(C2CCN(Cc3cn(-c4cccc(Cl)c4)c4ccccc34)CC2)c1 [Example 456], the Ki is reported as 28 nM. O=C(Nc1cccc(C2CCN(Cc3cn(-c4ccccc4Cl)c4ccccc34)CC2)c1)C1CC1 [Example 457] showed a Ki of 27.4 nM. CC(C)C(=O)Nc1cccc(C2CCN(Cc3cn(-c4cccc(Cl)c4)c4ccccc34)CC2)c1 [Example 458] was tested, and the Ki was 15.3 nM. CC(C)C(=O)Nc1cccc(C2CCN(Cc3cn(-c4ccc(Cl)cc4)c4ccccc34)CC2)c1 [Example 459] showed a Ki of 10.4 nM. With CC(C)C(=O)Nc1cccc(C2CCN(Cc3cn(-c4ccccc4Cl)c4ccccc34)CC2)c1 [Example 460] the Ki was 9.1 nM. CCC(=O)Nc1cccc(C2CCN(Cc3cn(-c4ccccc4Cl)c4ccccc34)CC2)c1 [Example 461] gave a Ki of 35.6 nM. O=C(Nc1cccc(C2CCN(Cc3cn(-c4ccc(Cl)cc4)c4ccccc34)CC2)c1)C1CC1 [Example 462] gave a Ki of 12.4 nM. With O=C(Nc1cccc(C2CCN(Cc3cn(-c4cccc(Cl)c4)c4ccccc34)CC2)c1)C1CC1 [Example 463] the Ki was 17.2 nM. In the case of CCC(=O)Nc1cccc(C2CCN(Cc3cn(-c4ccccc4)c4ccccc34)CC2)c1 [Example 464], the Ki is reported as 84.1 nM. Compound O=C(Nc1cccc(C2CCN(Cc3cn(-c4ccccc4)c4ccccc34)CC2)c1)C1CC1 [Example 465] has a Ki of 10.7 nM. CCC(=O)Nc1cccc(C2CCN(Cc3c[nH]c4cc(F)ccc34)CC2)c1 [Example 468] showed a Ki of 912 nM. In the case of O=C(Nc1cccc(C2CCN(Cc3c[nH]c4cc(F)ccc34)CC2)c1)C1CC1 [Example 469], the Ki is reported as 479 nM. CC(C)C(=O)Nc1cccc(C2CCN(Cc3c[nH]c4cc(F)ccc34)CC2)c1 [Example 470] showed a Ki of 654 nM. CC(C)C(=O)Nc1cccc(C2CCN(Cc3cn(-c4ccc(F)cc4)c4cc(Cl)ccc34)CC2)c1 [Example 471] gave a Ki of 4.3 nM. CCC(=O)Nc1cccc(C2CCN(Cc3cn(-c4ccccc4F)c4cc(Cl)ccc34)CC2)c1 [Example 472] showed a Ki of 12.2 nM. O=C(Nc1cccc(C2CCN(Cc3cn(-c4ccccc4F)c4cc(Cl)ccc34)CC2)c1)C1CC1 [Example 473] gave a Ki of 11.3 nM. For CC(C)C(=O)Nc1cccc(C2CCN(Cc3cn(-c4ccccc4F)c4cc(Cl)ccc34)CC2)c1 [Example 474], the Ki was 13.3 nM. With CCC(=O)Nc1cccc(C2CCN(Cc3cn(-c4ccc(Cl)cc4)c4cc(Cl)ccc34)CC2)c1 [Example 475] the Ki was 12.4 nM. O=C(Nc1cccc(C2CCN(Cc3cn(-c4ccc(Cl)cc4)c4cc(Cl)ccc34)CC2)c1)C1CC1 [Example 476] showed a Ki of 12.7 nM. In the case of CC(C)C(=O)Nc1cccc(C2CCN(Cc3cn(-c4ccc(Cl)cc4)c4cc(Cl)ccc34)CC2)c1 [Example 477], the Ki is reported as 14.9 nM. Work on CCC(=O)Nc1cccc(C2CCN(Cc3cn(-c4cccc(Cl)c4)c4cc(Cl)ccc34)CC2)c1 [Example 478] yielded a Ki of 11.7 nM. Work on O=C(Nc1cccc(C2CCN(Cc3cn(-c4cccc(Cl)c4)c4cc(Cl)ccc34)CC2)c1)C1CC1 [Example 479] yielded a Ki of 8.1 nM. Work on CC(C)C(=O)Nc1cccc(C2CCN(Cc3cn(-c4cccc(Cl)c4)c4cc(Cl)ccc34)CC2)c1 [Example 480] yielded a Ki of 9 nM. Compound O=C(Nc1cccc(C2CCN(Cc3c[nH]c4ccc(F)cc34)CC2)c1)C1CC1 [Example 481] has a Ki of 664 nM. Cc1ccc2c(CN3CCC(c4cccc(NC(=O)C(C)C)c4)CC3)c[nH]c2c1 [Example 495] was tested, and the Ki was 95.1 nM. CC(C)C(=O)Nc1cccc(C2CCN(Cc3c[nH]c4cc(OCc5ccccc5)ccc34)CC2)c1 [Example 496] gave a Ki of 288 nM. Work on COc1ccc2c(CN3CCC(c4cccc(NC(=O)C(C)C)c4)CC3)c[nH]c2c1 [Example 497] yielded a Ki of 97.7 nM. In the case of COC(=O)c1ccc2c(CN3CCC(c4cccc(NC(=O)C(C)C)c4)CC3)c[nH]c2c1 [Example 498, METHYL 3-({4-[3-(ISOBUTYRYLAMINO)PHENYL]-1-PIPERIDINYL}METHYL)-1H-INDOLE-6-CARBOXYLATE], the Ki is reported as 52.2 nM. For CC(C)C(=O)Nc1cccc(C2CCN(Cc3c[nH]c4cc(C(F)(F)F)ccc34)CC2)c1 [Example 499], the Ki was 11.9 nM. In the case of CC(C)C(=O)Nc1cccc(C2CCN(Cc3cn(-c4cccnc4)c4ccccc34)CC2)c1 [Example 500], the Ki is reported as 29.4 nM. Compound CC(C)C(=O)Nc1cccc(C2CCN(Cc3cn(-c4ccccn4)c4ccccc34)CC2)c1 [Example 501] has a Ki of 22.1 nM. For CC(C)C(=O)Nc1cccc(C2CCN(Cc3cn(-c4ccccc4)c4cc(F)ccc34)CC2)c1 [Example 502], the Ki was 4.6 nM. CC(C)C(=O)Nc1cccc(C2CCN(Cc3cn(-c4ccccc4)c4cc(Cl)ccc34)CC2)c1 [Example 503] showed a Ki of 6 nM. CC(C)C(=O)Nc1cccc(C2CCN(Cc3cn(-c4ccccc4)c4cc(OCc5ccccc5)ccc34)CC2)c1 [Example 504] was tested, and the Ki was 22.5 nM. Cc1ccc2c(CN3CCC(c4cccc(NC(=O)C(C)C)c4)CC3)cn(-c3ccccc3)c2c1 [Example 505] showed a Ki of 6.5 nM. COC(=O)c1ccc2c(CN3CCC(c4cccc(NC(=O)C(C)C)c4)CC3)cn(-c3ccccc3)c2c1 [Example 506, METHYL 3-({4-[3-(ISOBUTYRYLAMINO)PHENYL]-1-PIPERIDINYL}METHYL)-1-PHENYL-1H-INDOLE-6-CARBOXYLATE] showed a Ki of 2.5 nM. Compound CC(C)C(=O)Nc1cccc(C2CCN(Cc3c[nH]c4cc([N+](=O)[O-])ccc34)CC2)c1 [Example 507] has a Ki of 57.9 nM. Compound CC(C)C(=O)Nc1cccc(C2CCN(Cc3cn(-c4ccccc4)c4cc(C(F)(F)F)ccc34)CC2)c1 [Example 508] has a Ki of 8.5 nM. Cc1cccc2c(CN3CCC(c4cccc(NC(=O)C(C)C)c4)CC3)cn(-c3ccccc3)c12 [Example 509] gave a Ki of 24.3 nM. COc1cccc2c(CN3CCC(c4cccc(NC(=O)C(C)C)c4)CC3)c[nH]c12 [Example 510] was tested, and the Ki was 305 nM. COc1cccc2c(CN3CCC(c4cccc(NC(=O)C(C)C)c4)CC3)cn(-c3ccccc3)c12 [Example 511] showed a Ki of 6 nM. CC(C)C(=O)Nc1cccc(C2CCN(Cc3cn(-c4ccccc4)c4c(Cl)cccc34)CC2)c1 [Example 512] was tested, and the Ki was 42.7 nM. CC(C)C(=O)Nc1cccc(C2CCN(Cc3c[nH]c4c([N+](=O)[O-])cccc34)CC2)c1 [Example 513] was tested, and the Ki was 179 nM. With O=C(Nc1cccc(C2CCN(Cc3c[nH]c4c([N+](=O)[O-])cccc34)CC2)c1)C1CC1 [Example 514] the Ki was 151 nM. With CCC(=O)Nc1cccc(C2CCN(Cc3c[nH]c4c([N+](=O)[O-])cccc34)CC2)c1 [Example 515] the Ki was 296 nM. CC(C)C(=O)Nc1cccc(C2CCN(Cc3c[nH]c4c(-c5ccccc5F)cccc34)CC2)c1 [Example 516] was tested, and the Ki was 90.9 nM. For CC(C)C(=O)Nc1cccc(C2CCN(Cc3c[nH]c4c(-c5ccc6ccccc6c5)cccc34)CC2)c1 [Example 517], the Ki was 287 nM. Work on CCc1ccc(-c2cccc3c(CN4CCC(c5cccc(NC(=O)C(C)C)c5)CC4)c[nH]c23)cc1 [Example 518] yielded a Ki of 226 nM.
